ChEMBL document CHEMBL1201862, “PubChem BioAssay data set” (2004)
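How tested: cells in 96-well plates exposed to compound for 48 hours at five concentrations. GI50 marks 50% less growth.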 Activity calls are given as the source filed them. Rule as the data show it: active = GI50 up to about 1.1 µM and inactive = higher.

Key:
Assay in all cases: DTP human tumour cell line panel, 48 h
[1] = tested on: HL-60
[2] = tested on: SF-268
[3] = tested on: Hs-578T
[4] = tested on: OVCAR-4
[5] = tested on: UACC-62
[6] = tested on: MDA-MB-435
[7] = tested on: NCI-H23
[8] = tested on: UO-31
[9] = tested on: SK-MEL-5
[10] = tested on: ACHN
[11] = tested on: HCT-116
[12] = tested on: COLO 205
[13] = tested on: MCF7
[14] = tested on: SK-MEL-2
[15] = tested on: HT-29
[16] = tested on: HCT-15
[17] = tested on: SW-620
[18] = tested on: M14
[19] = tested on: A549
[20] = tested on: SF-539

SMILES | GI50 [1] | GI50 [2] | GI50 [3] | GI50 [4] | GI50 [5] | GI50 [6] | GI50 [7] | GI50 [8] | GI50 [9] | GI50 [10] | GI50 [11] | GI50 [12] | GI50 [13] | GI50 [14] | GI50 [15] | GI50 [16] [µM] | GI50 [17] | GI50 [18] | GI50 [19] | GI50 [20]
S=C(S)NCCN1CCNCC1 | < 0.01 µM (active) | 99.3 µM (inactive) | > 100 µM (inactive) | > 100 µM (inactive) | 84.9 µM (inactive) | 62.1 µM (inactive) | > 100 µM (inactive) | 29.7 µM (inactive) | 52.1 µM (inactive) | 36.7 µM (inactive) | 27.9 µM (inactive) | 18 µM (inactive) | 40 µM (inactive) | 67.1 µM (inactive) | 59.7 µM (inactive) | 47.8 | 20.7 µM (inactive) | 31.2 µM (inactive) | > 100 µM (inactive) | 
CCN(CC)c1ccc(C2Nc3ccc4ccccc4c3C3=C2C(=O)CCC3)cc1 (configuration not stated) |  | 27.5 µM (inactive) | 11.2 µM (inactive) | 14.9 µM (inactive) | 24.7 µM (inactive) | 54.6 µM (inactive) | 75 µM (inactive) | 26.1 µM (inactive) |  | 12.2 µM (inactive) | 25.3 µM (inactive) | > 100 µM (inactive) | 40.3 µM (inactive) | 35.5 µM (inactive) | 55.7 µM (inactive) | > 100 | > 100 µM (inactive) | > 100 µM (inactive) | 26.7 µM (inactive) | 13.1 µM (inactive)
O=C(C(Cl)=C(N1CCCCC1)N1CCCCC1)C(Cl)Cl | > 100 µM (inactive) | > 100 µM (inactive) | > 100 µM (inactive) | > 100 µM (inactive) | > 100 µM (inactive) | > 100 µM (inactive) | > 100 µM (inactive) | > 100 µM (inactive) | > 100 µM (inactive) | > 100 µM (inactive) | > 100 µM (inactive) | > 100 µM (inactive) | > 100 µM (inactive) |  | > 100 µM (inactive) | > 100 | > 100 µM (inactive) | > 100 µM (inactive) | > 100 µM (inactive) | > 100 µM (inactive)
CSC(=S)NN=C1CCCC1.CSC(=S)NN=C1CCCC1.[Zn+2] |  | 34.1 µM (inactive) | 29.2 µM (inactive) | 52.5 µM (inactive) | 28.2 µM (inactive) | 28.4 µM (inactive) | > 100 µM (inactive) | 13.4 µM (inactive) | 57.1 µM (inactive) | 1.83 µM (inactive) | 14.7 µM (inactive) | 34.6 µM (inactive) | 34.7 µM (inactive) | 22.7 µM (inactive) | 19.5 µM (inactive) | 1.99 | 17.1 µM (inactive) | 40.1 µM (inactive) | 18.8 µM (inactive) | 21.3 µM (inactive)
COc1ccc(OC)c2c1C=C[C@H](C1(C)SCCS1)C2C(C)=O (some centres not stated) | 18.2 µM (inactive) | 29.6 µM (inactive) | 17.2 µM (inactive) | 42.5 µM (inactive) | 20.8 µM (inactive) | 23.9 µM (inactive) | 22.6 µM (inactive) | 24.2 µM (inactive) | 17.2 µM (inactive) | 35.2 µM (inactive) | 23 µM (inactive) | > 10 µM (inactive) | 35.4 µM (inactive) |  | 18.7 µM (inactive) | 33.1 | 33.1 µM (inactive) | 31.2 µM (inactive) | 34.1 µM (inactive) | 23.1 µM (inactive)
C=C(C)C12CC(COC(=O)c3ccccc3)C34OC5(OC1C3C1OC1(CO)C(O)C1(O)C(OC(=O)c3ccccc3)C(C)C(C(C)CCCCCCC5O)C14)O2 (configuration not stated) |  | 52.1 µM (inactive) | 26.5 µM (inactive) | > 100 µM (inactive) | > 100 µM (inactive) |  | 56.2 µM (inactive) | 70.1 µM (inactive) | 11.6 µM (inactive) | 24.3 µM (inactive) | 52 µM (inactive) | < 0.01 µM (active) | 72.6 µM (inactive) | > 100 µM (inactive) | 19.5 µM (inactive) | 54 |  | 27.2 µM (inactive) |  | > 70.3 µM (inactive)
CC1(C)CC(=O)c2c(nc3ccc4ccccc4c3c2-c2ccc(NC(=O)CCCCC(=O)Nc3ccc(-c4c5c(nc6ccc7ccccc7c46)CC(C)(C)CC5=O)cc3)cc2)C1 | > 100 µM (inactive) | > 100 µM (inactive) | > 100 µM (inactive) |  | > 100 µM (inactive) | > 100 µM (inactive) | > 100 µM (inactive) | > 100 µM (inactive) | > 100 µM (inactive) | > 100 µM (inactive) | > 100 µM (inactive) | > 100 µM (inactive) | > 100 µM (inactive) | > 100 µM (inactive) | > 100 µM (inactive) | > 100 | > 100 µM (inactive) | > 100 µM (inactive) | > 100 µM (inactive) | > 100 µM (inactive)
Cc1ccc(Nc2nc(C)c(C(=O)CC(=O)C(=O)Nc3ccc(Cl)cc3)s2)cc1 | > 100 µM (inactive) | 49.5 µM (inactive) | > 100 µM (inactive) |  | > 100 µM (inactive) | > 100 µM (inactive) | > 100 µM (inactive) | > 100 µM (inactive) | > 100 µM (inactive) | > 100 µM (inactive) | > 100 µM (inactive) | > 100 µM (inactive) | > 100 µM (inactive) | > 100 µM (inactive) |  | > 100 | > 100 µM (inactive) | > 100 µM (inactive) | > 100 µM (inactive) | > 100 µM (inactive)
Cl.O=C(O)c1cccnc1 | > 100 µM (inactive) | > 100 µM (inactive) | > 100 µM (inactive) | > 100 µM (inactive) |  | > 100 µM (inactive) | > 100 µM (inactive) | > 100 µM (inactive) | > 100 µM (inactive) | > 100 µM (inactive) | > 100 µM (inactive) | > 100 µM (inactive) | > 100 µM (inactive) |  | > 100 µM (inactive) | > 100 | > 100 µM (inactive) | > 100 µM (inactive) | > 100 µM (inactive) | 34.8 µM (inactive)
CC(=O)NC1(C)CCC(C(C)(C)NC(C)=O)CC1 (configuration not stated) | > 100 µM (inactive) | > 100 µM (inactive) | > 100 µM (inactive) | > 100 µM (inactive) | > 100 µM (inactive) | > 100 µM (inactive) | > 100 µM (inactive) | > 100 µM (inactive) | > 100 µM (inactive) | > 100 µM (inactive) | > 100 µM (inactive) | > 100 µM (inactive) | > 100 µM (inactive) |  | > 100 µM (inactive) | > 100 | > 100 µM (inactive) | > 100 µM (inactive) | > 100 µM (inactive) | > 100 µM (inactive)
NS(=O)(=O)c1cccc(NC(=S)NC(=O)Nc2ccc(Cl)c(Cl)c2)c1 |  | 22.5 µM (inactive) | 17 µM (inactive) | 22.2 µM (inactive) | 13.3 µM (inactive) |  | 15.8 µM (inactive) | 16.6 µM (inactive) | 17.1 µM (inactive) | 19.5 µM (inactive) | 17.1 µM (inactive) | 20 µM (inactive) | 18.3 µM (inactive) | 23.2 µM (inactive) | 25.9 µM (inactive) | 17.3 | 19 µM (inactive) | 14.2 µM (inactive) | 20.5 µM (inactive) | 20 µM (inactive)
